Measurements taken from US20250195528A1, “DOSE REGIMEN OF VICASINABIN” (Hoffmann-La Roche Inc., priority 2022, published 2025).
Like-named read-outs stand apart in the source and are kept apart here.

Columns and labels:
[1] = Stability of drug substance; format: physicochemical
Description: For Phase I, film-coated tablets for oral administration containing 0.05, 0.75, 10, or 100 mg of RO6868847 drug substance were developed for clinical use. Three placebo film-coated tablets were formulated to match the active film-coated tablets in size and in appearance: one size to match the active 0.05 and 0.75 mg film-coated tablets and one size each to match the active 10 and 100 mg film-coated tablets.

[2] = tested on: 15-lipoxygenase, MAGL, diacylglycerol lipase, or FAAH enzymes; test: Functional cellular assays, enzymes of the endocannabinoid pathway; format: cell-based; details: 10 μM in mouse
rat CB2 = biological target: T1, rat CB2 (Rattus norvegicus, UniProt Q9QZN9); test: Forskolin-stimulated cAMP inhibition in stably transfected CHO cells; format: cell-based
T1 construct: expressed in transfected cells; host or cells: CHO cells
T1 sequence (Q9QZN9 1-360): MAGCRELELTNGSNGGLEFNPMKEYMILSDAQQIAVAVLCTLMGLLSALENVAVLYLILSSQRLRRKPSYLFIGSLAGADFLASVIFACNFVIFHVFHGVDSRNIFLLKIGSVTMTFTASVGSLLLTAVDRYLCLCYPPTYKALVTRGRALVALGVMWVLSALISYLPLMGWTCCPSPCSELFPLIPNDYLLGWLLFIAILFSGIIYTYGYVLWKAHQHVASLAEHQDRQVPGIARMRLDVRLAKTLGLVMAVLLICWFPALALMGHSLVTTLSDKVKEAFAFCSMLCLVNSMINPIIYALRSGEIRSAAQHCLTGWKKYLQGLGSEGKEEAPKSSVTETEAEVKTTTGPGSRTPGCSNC
Description: (§1) Inhibition of cAMP accumulation in Chinese hamster ovary cells stably expressing recombinant CB2 was used to determine the functional potency of RO6868847 for different CB2 species and the selectivity over the closely related CB1.

human CB2 [3] = biological target: T2, human CB2 (Homo sapiens, UniProt P34972); test: as above; format: cell-based; details: for Emax: CHO, normalized to 10 μM CP55′940; for IC50: IC50 ± SE (nM), CHO cells
T2 construct: expressed in transfected cells; host or cells: CHO cells
T2 sequence (P34972 whole entry): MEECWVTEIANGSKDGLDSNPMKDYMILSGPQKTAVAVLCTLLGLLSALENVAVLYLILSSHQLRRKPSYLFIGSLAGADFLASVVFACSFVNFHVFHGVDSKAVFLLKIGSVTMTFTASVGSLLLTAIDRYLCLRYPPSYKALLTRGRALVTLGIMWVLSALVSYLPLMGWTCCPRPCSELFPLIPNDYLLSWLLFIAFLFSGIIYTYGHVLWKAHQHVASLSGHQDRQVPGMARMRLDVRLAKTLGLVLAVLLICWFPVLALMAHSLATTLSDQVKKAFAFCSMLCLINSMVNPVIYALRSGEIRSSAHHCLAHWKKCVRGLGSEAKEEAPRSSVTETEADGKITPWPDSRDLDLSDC
Description: as §1

CB2 = biological target: T3, CB2 (Rattus norvegicus, UniProt Q9QZN9); test: In vitro rat Ki; format: binding
T3 sequence (Q9QZN9 1-360): T1 sequence (Q9QZN9 1-360)
Description: FIG. 10 illustrates Disease Markers versus Free Exposure of the Active S-Epimer RO6868847 in Several Animal Models. […] Disease markers (hyperfluorescence area in mm^2, OD retina-plasma fluorescein ratio, number of leukocytes per mm^2 or total length of processes in mm) as a percent of the control value (100% represents the vehicle-treated diabetic control and 0% for vehicle-treated healthy control) in different in vivo PD models as a function of the free AUC0-24 of the active S-epimer RO6868847.
Based on this integrated assessment, the pharmacologically active exposure range observed in rats spans 2 logs, with an upper bound (unbound AUC0-24 [S-epimer]=546 ng·hr/mL) corresponding to the full effect at 10 mg/kg in a rat STZ-induced Type 1 diabetes model and the lower bound (unbound AUC0-24 [S-epimer]=2.8 ng·hr/mL) corresponding to 50% decrease in disease marker (hypoerfluorescence area) in a laser-induced NV rat model.

[4] = tested on: LPS-induced G-CSF, IFNγ, IL1β and TNFα levels in whole blood; test: In vitro LPS whole blood challenge assay; format: cell-based, human
Description: In order to explore any putative anti-inflammatory pharmacodynamic effect mediated by the CB2 agonist RO6868847 in a potentially clinically relevant human sample, an ex vivo whole blood lipopolysacharid (LPS) challenge assay was performed. Sodium heparin whole blood samples from healthy participants (n=8) were incubated in vitro for 1 hour at 37° C. with eight increasing concentrations of RO6868847 (0-30 μM) and exposed to LPS (100 ng/ml). After 18 h at 37° C. supernatants were analyzed for alterations in a range of chemokines and cytokines using Luminex-bead based multiplex ELISAs.
In addition, this in vitro LPS whole blood challenge assay was also used in samples from diabetic (Type I and Type II) and matched healthy participants (table 6). In order to explore whether the exposure (0-30 μM)-response relationship of RO6868847 and the respective alterations in cytokine levels may be changed by any chronic inflammatory conditions in diabetes (DM) and/or in elderly healthy participants (HP), who are anticipated to be the study population of the Phase II proof of concept Study.

[5] = parameters: species or system human; details: in vivo
Description: In Study BP40387, in Part 1, 11 participants (24.4%), Part 2, 1 participant (12.5%), Part 3, 16 participants (40%), Part 4, 12 participants (70.6%) and Part 5, 2 participants (11.1%), had reported at least 1 AE (see Table 22). One participant (5.9%) in Part 4 of the study was withdrawn by the investigator because of AEs. The AEs reported in more than 2 participants in Part 1 was medical device site erythema (6 participants in each PT) and vascular procedure complication (2 participants in each PT), in Part 3 was medical device site erythema (5 participants in each PT), constipation (3 participants in each PT) medical device site papule, medical device site pruritus, vascular procedure complication, headache (each 2 participants), and in Part 4 constipation (2 participants in each PT). […] The event was considered to be related to vicasinabin by the investigator and resolved without sequelae within one week after treatment discontinuation.

human CB2 [6] = biological target: T2, human CB2; test: Radioligand binding to CB2, CHO cells expressing recombinant CB2
human CB1 = human CB1 (Homo sapiens, UniProt P21554); test: Human CB1 cAMP assay; format: cell-based
Chain of human CB1 (P21554 whole entry): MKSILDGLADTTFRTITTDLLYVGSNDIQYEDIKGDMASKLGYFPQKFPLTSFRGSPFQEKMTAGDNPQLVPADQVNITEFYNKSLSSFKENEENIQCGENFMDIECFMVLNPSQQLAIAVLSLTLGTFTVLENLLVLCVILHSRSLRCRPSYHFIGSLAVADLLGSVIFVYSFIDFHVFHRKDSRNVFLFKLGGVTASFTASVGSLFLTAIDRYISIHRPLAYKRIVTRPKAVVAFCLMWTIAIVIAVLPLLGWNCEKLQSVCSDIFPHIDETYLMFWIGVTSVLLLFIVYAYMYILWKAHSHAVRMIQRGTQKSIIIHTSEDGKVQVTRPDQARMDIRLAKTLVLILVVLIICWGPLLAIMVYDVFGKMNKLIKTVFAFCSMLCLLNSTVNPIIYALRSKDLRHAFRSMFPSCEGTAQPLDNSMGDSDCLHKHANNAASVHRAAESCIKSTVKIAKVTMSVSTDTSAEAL
Description: as §1

cynomolgus monkey CB2 = cynomolgus monkey CB2 (Macaca fascicularis, UniProt G7NVV5); test: Radioligand binding to CB2, CHO cells
Chain of cynomolgus monkey CB2 (G7NVV5 1-360): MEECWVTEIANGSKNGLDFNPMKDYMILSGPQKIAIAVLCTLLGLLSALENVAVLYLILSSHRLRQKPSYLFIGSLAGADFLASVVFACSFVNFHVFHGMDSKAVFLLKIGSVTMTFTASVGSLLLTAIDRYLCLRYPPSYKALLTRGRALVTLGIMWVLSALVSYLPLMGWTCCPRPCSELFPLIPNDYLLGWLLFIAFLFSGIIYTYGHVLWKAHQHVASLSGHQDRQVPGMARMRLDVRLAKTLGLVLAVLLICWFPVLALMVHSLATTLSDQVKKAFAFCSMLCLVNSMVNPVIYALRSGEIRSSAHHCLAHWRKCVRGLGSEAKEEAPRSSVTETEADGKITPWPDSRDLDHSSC

[7] = tested on: 15-lipoxygenase, MAGL, diacylglycerol lipase, or FAAH enzymes; test: Functional cellular assays, enzymes of the endocannabinoid pathway; format: cell-based; details: up to 500 μM in human targets
[8] = diabetic patients and matched healthy participants

Compound: Cn1nnnc1Cn1nnc2c(N3CC[C@H](O)C3)nc(C(C)(C)C)nc21 [RO6868847, (3S)-1-[5-tert-butyl-3-[(1-methyltetrazol-5-yl)methyl]triazolo[4,5-d]pyrimidin-7-yl]pyrrolidin-3-ol]
- stability to temperature stress [1]: fairly stable
- stability to light ([1]; solid state and solution): stable to light
- activity at endocannabinoid pathway enzymes [2]: no activity
- IC50 (rat CB2): 0.58 ± 0.04 nM
- Emax (rat CB2; CHO, Rats, normalized to 10 μM CP55′940): 94.7%
- agonist character at human CB2 (human CB2 [3]): potent, full agonist
- Emax (human CB2 [3]; Human): 103%
- Emax (human CB2 [3]; second row printed 'Human'): 101%
- IC50 (human CB2 [3]; Human, four independent experiments): 2.81 ± 0.28 nM
- IC50 (human CB2 [3]; second row printed 'Human'): 2.6 ± 0.14 nM
- Ki (CB2; rat): 33.3 nM
- unbound AUC0-24 at in vitro rat Ki as share of upper bound of active exposure (CB2; rat): 52%
- free AUC0-24 extrapolated from rat Ki (CB2; rat Ki x 24): 286 ng·h/mL
- Ki (CB2; rat, converted from nM): 33.5 nM
- IC50 ([4]; Homo sapiens, DM, 3/9, read-out: IC50 (IL-1β)/μM): 29.4 ± 24.1 µM
- IC50 ([4]; Homo sapiens, DM, 7/9, read-out: IC50 (IFNγ)/μM): 6.91 ± 2.29 µM
- IC50 ([4]; Homo sapiens, HV, 3/8, read-out: IC50 (TNFα)/μM): 7 ± 4.61 µM
- IC50 ([4]; Homo sapiens, HV, 5/8, read-out: IC50 (IL-1β)/μM): 5.02 ± 4.58 µM
- IC50 ([4]; Homo sapiens, HV, 6/8, read-out: IC50 (IFNγ)/μM): 10.9 ± 8.9 µM
- IC50 ([4]; Homo sapiens, Matched HVs, 4/8, read-out: IC50 (IFNγ)/μM): 12.4 ± 4.19 µM
- EC50 ([4]; Homo sapiens, HV, curves fitted 5/8): 7.97 ± 6.71 µM
- G-CSF and TNFα levels post LPS [4, 8]: an overall drug response in the explored exposure range could not be concluded
- IFNγ level post LPS [4, 8]: dose-dependent attenuation of IFNγ
- chemokine and cytokine levels post LPS stimulation ([4]; healthy participants n=8, 0-30 μM, LPS 100 ng/ml, 18 h): decrease of IFNγ, IL1β, TNFα and elevation of G-CSF
- participants withdrawn because of AEs ([5]; both, human, 14 days): 5.9%
- clinical laboratory parameters, ECGs, vital signs, C-SSRS, VAS, TBNK assay, neurological examinations [5]: No specific concerns
- IC50 (human CB2 [6]): 117 ± 26.3 nM
- Ki (human CB2 [6]): 51.3 nM
- EC50 (human CB1): > 10000 nM
- IC50 (human CB1): > 10000 nM
- CB1/CB2 Ratio (functional selectivity) (human CB1; CB1 EC50 over CB2 EC50): >3600 fold
- receptor activation or inhibition (human CB1; highest concentration of 10 μM): no receptor activation or inhibition
- IC50 (cynomolgus monkey CB2): 103 ± 17.2 nM
- Ki (cynomolgus monkey CB2; read-out: Ki ± SE): 66.8 nM
- activity at endocannabinoid pathway enzymes [7]: no activity
